These results are taken from ChEMBL document CHEMBL1201862, “PubChem BioAssay data set” (2004).

Some test systems named below: NCI-H460; HL-60; KM12; OVCAR-8; SK-OV-3; T47D; NCI-H522; LOX IMVI; SK-MEL-28; HOP-62; MDA-N; EKVX; HCT-15; SN12C; HT-29; NCI-H23; SW-620; SR; U-251; HOP-92.
What all share (assay): NCI tumour cell line growth inhibition, 48 h

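Briefly, cells in 96-well plates were exposed to five compound concentrations for 48 h, and endpoints were estimated by linear interpolation. GI50 is the concentration that inhibits growth by half.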 Calls of active or inactive are those of the source. Rule as the data show it: active = GI50 up to about 1.1 µM and inactive = higher.

Take `CCCCC(/C=C\COC1CCCCO1)=C/C(=O)OCC` (configuration not stated): the GI50 is 98.6 µM (inactive) in the assay on NCI-H460; 29.2 µM (inactive) with HL-60; 46.6 µM (inactive) with KM12; 94.4 µM (inactive) in the assay on OVCAR-8; > 100 µM (inactive) in the assay on SK-OV-3; 55.3 µM (inactive) with T47D. In addition, the GI50 is 30.5 µM (inactive) with NCI-H522; 41.4 µM (inactive) in the assay on LOX IMVI; > 100 µM (inactive) in the assay on SK-MEL-28; > 100 µM (inactive) with HOP-62; 63.1 µM (inactive) in the assay on MDA-N; 37 µM (inactive) in the assay on EKVX. Also, the GI50 in the assay with HCT-15 was above 100 µM; in the assay on SN12C, 57.4 µM (inactive); with HT-29 it was 38.4 µM (inactive); with NCI-H23 it was > 100 µM (inactive); in the assay with SW-620 it was 70.6 µM (inactive); in the assay on SR, 32.6 µM (inactive). Moreover, the GI50 in the assay with U-251 was 44.8 µM (inactive).
Take `Cc1cc(C)nc(NS(=O)(=O)c2ccc(NC(=O)NC(F)(F)F)cc2)n1`: the GI50 with HL-60, in the assay on OVCAR-8, with SK-OV-3, in the assay on T47D, in the assay on LOX IMVI and with SK-MEL-28 was > 100 µM (inactive) each time. The GI50 was > 100 µM (inactive) with MDA-N; > 100 µM (inactive) with EKVX; above 100 µM with HCT-15; > 100 µM (inactive) in the assay on SN12C; > 100 µM (inactive) in the assay with HT-29; > 100 µM (inactive) in the assay with NCI-H23. The GI50 with SW-620, in the assay with SR and in the assay on U-251 was > 100 µM (inactive) in each case.
Regarding `CSc1s[s+]c(SC)c1-c1ccccc1`, the GI50 is 29.7 µM (inactive) in the assay with NCI-H460; 28.9 µM (inactive) in the assay with HL-60; 16 µM (inactive) with KM12; 15.7 µM (inactive) with OVCAR-8; 15.9 µM (inactive) in the assay with SK-OV-3; 32.6 µM (inactive) in the assay with T47D. Further, the GI50 with NCI-H522 is 11.7 µM (inactive); in the assay with LOX IMVI it was 25.9 µM (inactive); in the assay with HOP-62, 14.6 µM (inactive); with MDA-N, 16.7 µM (inactive); in the assay with EKVX it was 14.8 µM (inactive); in the assay with HCT-15, 16.4 µM. For the same compound, the GI50 is 16.3 µM (inactive) with SN12C; 17.5 µM (inactive) in the assay on HT-29; 16.9 µM (inactive) in the assay with NCI-H23; 16.4 µM (inactive) with SW-620; 19.4 µM (inactive) in the assay on U-251; 13.2 µM (inactive) in the assay with HOP-92.
On to `O=C(O)c1ccc(C=C2Sc3ccccc3S2)cc1`, for which the GI50 was 50 µM (inactive) in the assay on NCI-H460; 35 µM (inactive) in the assay on HL-60; 46.7 µM (inactive) with KM12; > 100 µM (inactive) in the assay with OVCAR-8; 86.9 µM (inactive) with SK-OV-3; 45 µM (inactive) with T47D. In addition, the GI50 in the assay on NCI-H522 was 26.1 µM (inactive); with LOX IMVI, 52 µM (inactive); with HOP-62, 81.5 µM (inactive); in the assay with MDA-N, 29 µM (inactive); in the assay on EKVX, 45 µM (inactive); in the assay with HCT-15 it was 37.2 µM. The GI50 was 65.9 µM (inactive) with SN12C; 43.5 µM (inactive) in the assay with HT-29; > 100 µM (inactive) in the assay on NCI-H23; > 100 µM (inactive) with SW-620; 48.2 µM (inactive) in the assay on U-251; 64.4 µM (inactive) in the assay with HOP-92.
Consider `CN1C(=O)C2CCCC(=O)N2c2cccnc21` (configuration not stated), for which the GI50 in the assay on NCI-H460, in the assay on HL-60, in the assay with KM12, in the assay with OVCAR-8, in the assay with T47D and in the assay with NCI-H522 was > 100 µM (inactive) in each case. The GI50 with LOX IMVI was > 100 µM (inactive); in the assay with SK-MEL-28, > 100 µM (inactive); with HOP-62, > 100 µM (inactive); with MDA-N, > 100 µM (inactive); in the assay on EKVX it was > 100 µM (inactive); in the assay with HCT-15, above 100 µM. Also, the GI50 in the assay on SN12C, with HT-29, with NCI-H23, in the assay with SW-620, with SR and in the assay on U-251 was > 100 µM (inactive) each time.
On to `N#CC(C#N)=C1CCCCc2ccc([N+](=O)[O-])cc21`, for which the GI50 in the assay with NCI-H460 is > 100 µM (inactive); in the assay with HL-60, 29 µM (inactive); with KM12, > 100 µM (inactive); with OVCAR-8, > 100 µM (inactive); in the assay with SK-OV-3 it was > 100 µM (inactive); in the assay on T47D, 46.3 µM (inactive). Besides, the GI50 is 19.4 µM (inactive) in the assay on NCI-H522; 76.2 µM (inactive) in the assay on LOX IMVI; > 100 µM (inactive) in the assay on SK-MEL-28; > 100 µM (inactive) in the assay on HOP-62; 51.6 µM (inactive) in the assay on MDA-N; 46.6 µM (inactive) in the assay on EKVX. Also, the GI50 in the assay with HCT-15 was 63.7 µM; in the assay on SN12C it was 52.6 µM (inactive); with HT-29 it was 78.9 µM (inactive); with NCI-H23 it was > 100 µM (inactive); in the assay with SW-620, 41.9 µM (inactive); in the assay with U-251 it was 76.2 µM (inactive). Also, the GI50 in the assay on HOP-92 is > 100 µM (inactive).
Turning to `CC(C)(C)OC(=O)N/C(C=O)=C\C1CCCCC1`, the GI50 in the assay with NCI-H460 was 20.2 µM (inactive); in the assay on HL-60, 25.4 µM (inactive); in the assay with KM12 it was 24.4 µM (inactive); in the assay on OVCAR-8, 16.3 µM (inactive); in the assay on SK-OV-3 it was 30 µM (inactive); in the assay on T47D it was 24.6 µM (inactive). In addition, the GI50 in the assay with NCI-H522 is 45.7 µM (inactive); with LOX IMVI, 14.3 µM (inactive); in the assay with SK-MEL-28 it was 46.6 µM (inactive); with HOP-62, 21 µM (inactive); in the assay on MDA-N it was 18.5 µM (inactive); with EKVX it was 17.2 µM (inactive). The GI50 is 18.8 µM with HCT-15; 19.3 µM (inactive) in the assay on SN12C; 27.2 µM (inactive) with HT-29; 23.7 µM (inactive) with NCI-H23; 27.3 µM (inactive) with SW-620; 17.3 µM (inactive) in the assay with SR. Also, the GI50 in the assay with U-251 was 17.2 µM (inactive).
As for `COC(=O)[C@H](Cc1ccccc1)NC(=O)N(CCN(CCC#N)C(=O)N[C@H](C(=O)OC)C(C)C)c1ccccc1`, the GI50 in the assay with KM12 is > 100 µM (inactive); with OVCAR-8, > 100 µM (inactive); with SK-OV-3, > 100 µM (inactive); with T47D, 49.4 µM (inactive); with NCI-H522 it was 30.3 µM (inactive); in the assay on LOX IMVI, > 100 µM (inactive). Also, the GI50 is > 100 µM (inactive) with SK-MEL-28; > 100 µM (inactive) in the assay with HOP-62; > 100 µM (inactive) in the assay with MDA-N; > 100 µM (inactive) in the assay with EKVX; above 100 µM in the assay on HCT-15; > 100 µM (inactive) in the assay on SN12C. The GI50 in the assay with NCI-H23 is > 100 µM (inactive); in the assay on SW-620, > 100 µM (inactive); in the assay on U-251 it was > 100 µM (inactive); in the assay on HOP-92 it was 22.8 µM (inactive).
